Test results: patent US11970494B2, “6-heteroaryloxy benzimidazoles and azabenzimidazoles as JAK2 inhibitors” (Ajax Therapeutics, Inc., priority 2021, dated 2024)

target: T1, JAK2 (JH1 domain-catalytic, Y1007F,Y1008F) kinase (Homo sapiens, UniProt O60674, Y1007F/Y1008F); test: JAK2 Binding Assay (JAK2 JH1 Domain Binding Assay); details: not given
T1 construct: made in house; host or cells: transiently transfected HEK293 cells
T1 sequence (O60674 849-1124 Y1007F/Y1008F limits assumed): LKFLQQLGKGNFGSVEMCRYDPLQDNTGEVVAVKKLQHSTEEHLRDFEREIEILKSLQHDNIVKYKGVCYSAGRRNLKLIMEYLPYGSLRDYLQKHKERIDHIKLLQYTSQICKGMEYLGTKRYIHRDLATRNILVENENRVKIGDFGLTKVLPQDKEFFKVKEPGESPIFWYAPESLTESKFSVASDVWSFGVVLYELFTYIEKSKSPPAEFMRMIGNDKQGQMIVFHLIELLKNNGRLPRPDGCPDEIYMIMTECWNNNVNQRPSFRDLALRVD

Row | Structure (SMILES) | Kd [nM]
1 | Cn1cc(C(F)(F)F)cc(Nc2nc3ncc(Oc4ccnc(NC(=O)CF)c4)c(Cl)c3n2C)c1=O [Example I-76, N-(4-((7-chloro-1-methyl-2-((1-methyl-2-oxo-5-(trifluoromethyl)-1,2-dihydropyridin-3-yl)amino)-1H-imidazo[4,5-b]pyridin-6-yl)oxy)pyridin-2-yl)-2-fluoroacetamide] | < 10

same assay, conditions: JAK2 JH1 domain binding, qPCR detection; read-out: JAK2 Kd

Row | Structure (SMILES) | Kd [nM]
2 | CC(=O)Nc1cc(Oc2cnc3nc(Nc4cc5n(n4)CCCC5(F)F)n(C)c3c2Cl)ccn1 [Example I-92, N-(4-((7-chloro-2-((4,4-difluoro-4,5,6,7-tetrahydropyrazolo[1,5-a]pyridin-2-yl)amino)-1-methyl-1H-imidazo[4,5-b]pyridin-6-yl)oxy)pyridin-2-yl)acetamide] | < 10
3 | CN(C)C(=O)Nc1cc(Oc2cnc3nc(Nc4cc5n(n4)CCOC5(C)C)n(C)c3c2C#N)ccn1 [Example I-44, 3-(4-((7-cyano-2-((4,4-dimethyl-6,7-dihydro-4H-pyrazolo[5,1-c][1,4]oxazin-2-yl)amino)-1-methyl-1H-imidazo[4,5-b]pyridin-6-yl)oxy)pyridin-2-yl)-1,1-dimethylurea] | < 10
4 | CC(=O)Nc1cc(Oc2cnc3nc(Nc4ccc([C@@H]5CCCN5C)c(C(F)(F)F)c4)n(C)c3c2Cl)ccn1 (single isomer, unassigned) [Example I-108-b] | < 10
5 | CN(C)C(=O)Nc1cc(Oc2cnc3nc(Nc4cc5n(n4)CC(C)(C)OC5)n(C)c3c2C#N)ccn1 [Example I-73, 3-(4-((7-cyano-2-((6,6-dimethyl-6,7-dihydro-4H-pyrazolo[5,1-c][1,4]oxazin-2-yl)amino)-1-methyl-1H-imidazo[4,5-b]pyridin-6-yl)oxy)pyridin-2-yl)-1,1-dimethylurea] | 10 to 50
6 | CC(=O)Nc1cc(Oc2cnc3nc(Nc4cc(C(F)(F)F)n(C5CC6(COC6)C5)n4)n(C)c3c2Cl)ccn1 [Example I-98, N-(4-((2-((1-(2-oxaspiro[3.3]heptan-6-yl)-5-(trifluoromethyl)-1H-pyrazol-3-yl)amino)-7-chloro-1-methyl-1H-imidazo[4,5-b]pyridin-6-yl)oxy)pyridin-2-yl)acetamide] | < 10
7 | Cn1c(Nc2cc3n(n2)CCCC3(F)F)nc2ncc(Oc3ccnc(NC(=O)N4CCCC4)c3)c(C#N)c21 [Example I-23, N-(4-((7-cyano-2-((4,4-difluoro-4,5,6,7-tetrahydropyrazolo[1,5-a]pyridin-2-yl)amino)-1-methyl-1H-imidazo[4,5-b]pyridin-6-yl)oxy)pyridin-2-yl)pyrrolidine-1-carboxamide] | < 10
8 | CC(=O)Nc1cc(Oc2cnc3nc(Nc4cc5n(n4)CCOC5(C)C)n(C)c3c2C#N)ccn1 [Example I-112, N-(4-((7-cyano-2-((4,4-dimethyl-6,7-dihydro-4H-pyrazolo[5,1-c][1,4]oxazin-2-yl)amino)-1-methyl-1H-imidazo[4,5-b]pyridin-6-yl)oxy)pyridin-2-yl)acetamide] | < 10
9 | CN1CCn2nc(Nc3nc4ncc(Oc5ccnc(NC(=O)OC6COC6)c5)c(Cl)c4n3C)cc2C1=O [Example I-54, oxetan-3-yl(4-((7-chloro-1-methyl-2-((5-methyl-4-oxo-4,5,6,7-tetrahydropyrazolo[1,5-a]pyrazin-2-yl)amino)-1H-imidazo[4,5-b]pyridin-6-yl)oxy)pyridin-2-yl)carbamate] | 1000 to 5000
10 | CN(C)C(=O)Nc1cc(Oc2cnc3nc(Nc4cc5n(n4)CCCC54CC4)n(C)c3c2C#N)ccn1 [Example I-65, 3-(4-((7-cyano-2-((6′,7′-dihydro-5′H-spiro[cyclopropane-1,4′-pyrazolo[1,5-a]pyridin]-2′-yl)amino)-1-methyl-1H-imidazo[4,5-b]pyridin-6-yl)oxy)pyridin-2-yl)-1,1-dimethylurea] | < 10
11 | COC(=O)Nc1cc(Oc2cnc3nc(Nc4cc5n(n4)CCN(C)C5=O)n(C)c3c2Cl)ccn1 [Example I-40, Methyl(4-((7-chloro-1-methyl-2-((5-methyl-4-oxo-4,5,6,7-tetrahydropyrazolo[1,5-a]pyrazin-2-yl)amino)-1H-imidazo[4,5-b]pyridin-6-yl)oxy)pyridin-2-yl)carbamate] | 1000 to 5000
12 | CC(=O)Nc1cc(Oc2cnc3nc(Nc4cc(C(C)(C)C(F)(F)F)on4)n(C)c3c2C#N)ccn1 [Example I-104, N-(4-((7-cyano-1-methyl-2-((5-(1,1,1-trifluoro-2-methylpropan-2-yl)isoxazol-3-yl)amino)-1H-imidazo[4,5-b]pyridin-6-yl)oxy)pyridin-2-yl)acetamide] | > 5000

More lines, now with the values ahead:

Row | Kd [nM] | Structure (SMILES)
13 | < 10 | Cn1cc(C(F)(F)F)cc(Nc2nc3ncc(Oc4ccnc(NC(=O)C[C@@H]5CCCCO5)c4)c(C#N)c3n2C)c1=O (single isomer, unassigned) [Example I-74-a]
14 | < 10 | COCCNCC(=O)Nc1cc(Oc2cnc3nc(Nc4cc(C(F)(F)F)cn(C)c4=O)n(C)c3c2Cl)ccn1 [Example I-85, N-(4-((7-chloro-1-methyl-2-((1-methyl-2-oxo-5-(trifluoromethyl)-1,2-dihydropyridin-3-yl)amino)-1H-imidazo[4,5-b]pyridin-6-yl)oxy)pyridin-2-yl)-2-((2-methoxyethyl)amino)acetamide]
15 | < 10 | CC(=O)Nc1cc(Oc2cnc3nc(Nc4cc(OC[C@H]5CCCN5C)cc(C(F)(F)F)c4)n(C)c3c2Cl)ccn1 [Example I-97, (R)-N-(4-((7-chloro-1-methyl-2-((3-((1-methylpyrrolidin-2-yl)methoxy)-5-(trifluoromethyl)phenyl)amino)-1H-imidazo[4,5-b]pyridin-6-yl)oxy)pyridin-2-yl)acetamide]
16 | < 10 | CN1CCO[C@H](CC(=O)Nc2cc(Oc3cnc4nc(Nc5cc(C(F)(F)F)cn(C)c5=O)n(C)c4c3C#N)ccn2)C1 (single isomer, unassigned) [Example I-90-a]
17 | < 10 | Cn1cc(C(F)(F)F)cc(Nc2nc3ncc(Oc4ccnc(NC(=O)NC5COC5)c4)c(C#N)c3n2C)c1=O [Example I-123, 1-(4-((7-cyano-1-methyl-2-((1-methyl-2-oxo-5-(trifluoromethyl)-1,2-dihydropyridin-3-yl)amino)-1H-imidazo[4,5-b]pyridin-6-yl)oxy)pyridin-2-yl)-3-(oxetan-3-yl)urea]
18 | < 10 | CC(=O)Nc1cc(Oc2cnc3nc(Nc4cc(C(F)(F)F)cn(C)c4=O)n(C)c3c2)ccn1 [Example I-77, N-(4-((1-methyl-2-((1-methyl-2-oxo-5-(trifluoromethyl)-1,2-dihydropyridin-3-yl)amino)-1H-imidazo[4,5-b]pyridin-6-yl)oxy)pyridin-2-yl)acetamide]
19 | < 10 | [2H]C([2H])([2H])n1cc(C(F)(F)F)cc(Nc2nc3ncc(Oc4ccnc(NC(C)=O)c4)c(C#N)c3n2C)c1=O [Example I-83, N-(4-((7-cyano-1-methyl-2-((1-(methyl-d3)-2-oxo-5-(trifluoromethyl)-1,2-dihydropyridin-3-yl)amino)-1H-imidazo[4,5-b]pyridin-6-yl)oxy)pyridin-2-yl)acetamide]
20 | < 10 | CC(=O)Nc1cc(Oc2cnc3nc(Nc4cc(C(F)(F)F)cn(CCO)c4=O)n(C)c3c2C#N)ccn1 [Example I-81]
21 | < 10 | CN(C)CCOC(=O)Nc1cc(Oc2cnc3nc(Nc4cc(C(F)(F)F)cn(C)c4=O)n(C)c3c2Cl)ccn1 [Example I-19, 2-(Dimethylamino)ethyl(4-((7-chloro-1-methyl-2-((1-methyl-2-oxo-5-(trifluoromethyl)-1,2-dihydropyridin-3-yl)amino)-1H-imidazo[4,5-b]pyridin-6-yl)oxy)pyridin-2-yl)carbamate]
